This experiment relates to P388 leukemia ip, CD2F1 mice, survival T/C. The experiment is described as follows: NCI In Vivo Anticancer Drug Screen. Data for tumor model P388 Leukemia (intraperitoneal) in CD2F1 (CDF1) mice. The following applies: endpoint: median survival time, higher = longer survival. The gist of the method:
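Mice carrying the transplanted tumor received test compound or vehicle. Survival was recorded in each group, and the value is the treated-group measurement divided by that of the vehicle-treated control group.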

[1] abbreviates: dose: 60.0 mg/kg/injection, schedule: Q01DX005 (ip), vehicle: saline.
Setting [2] is: dose: 50.0 mg/kg/injection, schedule: Q01DX005 (ip), vehicle: Klucel (hydroxypropylcellulose) (HPC).
[3] abbreviates: dose: 100.0 mg/kg/injection, schedule: Q01DX005 (ip), vehicle: Klucel (hydroxypropylcellulose) (HPC).
Where [4] appears, read: dose: 200.0 mg/kg/injection, schedule: Q01DX005 (ip), vehicle: Klucel (hydroxypropylcellulose) (HPC).
The mark [5] stands for this setting: dose: 50.0 mg/kg/injection, schedule: Q01DX009 (ip), vehicle: saline with Tween-80.
The mark [6] stands for this setting: dose: 100.0 mg/kg/injection, schedule: Q01DX009 (ip), vehicle: saline with Tween-80.
Setting [7] is: dose: 200.0 mg/kg/injection, schedule: Q01DX009 (ip), vehicle: saline with Tween-80.
Where [8] appears, read: dose: 50.0 mg/kg/injection, schedule: Q01DX009 (ip), vehicle: Klucel (hydroxypropylcellulose) (HPC).
Where [9] appears, read: dose: 100.0 mg/kg/injection, schedule: Q01DX009 (ip), vehicle: Klucel (hydroxypropylcellulose) (HPC).
The mark [10] stands for this setting: dose: 200.0 mg/kg/injection, schedule: Q01DX009 (ip), vehicle: Klucel (hydroxypropylcellulose) (HPC).

Several values for one entry are separate records, joined by “and”; a condition that tells them apart may be missing. Identical values can stand only once. Toxic doses and inconclusive results are not listed.

As to `NC(=S)SCCC(=O)N1CCCCC1`, the T/C reads like this: (dose: 25.0 mg/kg/injection, schedule: Q04DX002 (ip), vehicle: Klucel (hydroxypropylcellulose) (HPC)) 101 % of control; (dose: 50.0 mg/kg/injection, schedule: Q04DX002 (ip), vehicle: Klucel (hydroxypropylcellulose) (HPC)) 95 % of control; (dose: 100.0 mg/kg/injection, schedule: Q04DX002 (ip), vehicle: Klucel (hydroxypropylcellulose) (HPC)) 104 % of control and 95 % of control.
Take `CCCCOc1ccc(C(=S)NC(=O)Nc2ccccc2)cc1`: the T/C is 123 % of control (dose: 3.0 mg/kg/injection, schedule: Q01DX009 (ip), vehicle: saline with Tween-80); 103 % of control (dose: 6.0 mg/kg/injection, schedule: Q01DX009 (ip), vehicle: saline with Tween-80); 98 % of control (dose: 12.0 mg/kg/injection, schedule: Q01DX009 (ip), vehicle: saline with Tween-80).
Turning to `C(=N\Nc1ccccn1)/c1ccccn1.C(=N\Nc1ccccn1)/c1ccccn1.[Cl-].[Fe+3]`, the T/C by setting is: (dose: 100.0 mg/kg/injection, schedule: Q01DX001 (ip), vehicle: saline with Tween-80) 100 % of control; (dose: 200.0 mg/kg/injection, schedule: Q01DX001 (ip), vehicle: saline with Tween-80) 89 % of control.
Consider `CN1C(=O)c2ccccc2NC(=O)C12O[C@@H]2c1cccc(O)c1` (some centres undefined), for which the T/C runs as follows: (dose: 1.63 mg/kg/injection, schedule: Q01DX005 (ip), vehicle: DMSO) 106 % of control; (dose: 3.25 mg/kg/injection, schedule: Q01DX005 (ip), vehicle: DMSO) 106 % of control; (dose: 6.5 mg/kg/injection, schedule: Q01DX005 (ip), vehicle: DMSO) 113 % of control; (dose: 13.0 mg/kg/injection, schedule: Q01DX005 (ip), vehicle: DMSO) 100 % of control.
As for `CC(=O)/C=C(\C)NCCN/C(C)=C/C(C)=O`, the T/C is 101 % of control under setting [1]; 98 % of control (dose: 120.0 mg/kg/injection, schedule: Q01DX005 (ip), vehicle: saline); 98 % of control (dose: 240.0 mg/kg/injection, schedule: Q01DX005 (ip), vehicle: saline).
Consider `CNC(=S)N/N=C(\C)c1ccccn1`, for which the T/C is 107 % of control and 117 % of control (dose: 12.5 mg/kg/injection, schedule: Q01DX009 (ip), vehicle: saline with Tween-80); 116 % of control (dose: 25.0 mg/kg/injection, schedule: Q01DX009 (ip), vehicle: saline with Tween-80).
For `Cc1oc2c(c(C)nn2-c2ccccc2)c(=O)c1Cl`, the T/C was 92 % of control under setting [2], 106 % of control under setting [3] and 108 % of control under setting [4].
Turning to `CN1CC=C(c2ccccc2)C(O)C1` (centres undefined), the T/C reads like this: (dose: 12.5 mg/kg/injection, schedule: Q04DX002 (ip), vehicle: saline) 116 % of control; (dose: 15.0 mg/kg/injection, schedule: Q01DX005 (ip), vehicle: saline) 100 % of control; (dose: 25.0 mg/kg/injection, schedule: Q04DX002 (ip), vehicle: saline) 101 % of control; (dose: 30.0 mg/kg/injection, schedule: Q01DX005 (ip), vehicle: saline) 99 % of control; (dose: 50.0 mg/kg/injection, schedule: Q04DX002 (ip), vehicle: saline) 101 % of control; under setting [1], 117 % of control and 97 % of control.
On to `COC(=O)C#CCO`, for which the T/C (dose: 6.25 mg/kg/injection, schedule: Q01DX009 (ip), vehicle: water) is 103 % of control; the T/C (dose: 12.5 mg/kg/injection, schedule: Q01DX009 (ip), vehicle: water) was 112 % of control and 94 % of control; the T/C (dose: 25.0 mg/kg/injection, schedule: Q01DX009 (ip), vehicle: water) was 112 % of control and 120 % of control; the T/C (dose: 50.0 mg/kg/injection, schedule: Q01DX009 (ip), vehicle: water) was 112 % of control and 122 % of control.
For `NC(=S)NNC(=O)C(Cc1ccccc1)NC(=O)OCc1ccccc1` (centres undefined), the T/C under setting [5] is 93 % of control.
With `Oc1c(Cl)cc(Cl)cc1C1CC(c2ccccc2Cl)=NN1c1ccccc1` (centres undefined), the T/C runs as follows: under setting [5], 96 % of control; under setting [6], 95 % of control; under setting [7], 97 % of control.
For the compound `Clc1ccc2c(c1)nc(-c1ccccn1)n2CCc1ccncc1`, the T/C runs as follows: (dose: 25.0 mg/kg/injection, schedule: Q01DX005 (ip), vehicle: Klucel (hydroxypropylcellulose) (HPC)) 100 % of control; under setting [2], 95 % of control; under setting [3], 99 % of control; under setting [4], 99 % of control.
As to `O=C(NO)C1(Br)CCCCC1Br` (centres undefined), the T/C (dose: 100.0 mg/kg/injection, schedule: Q01DX001 (ip), vehicle: Klucel (hydroxypropylcellulose) (HPC)) is 91 % of control.
Regarding `O=C(O)CCCCC1SCC2NC(=O)NC21` (centres undefined), the T/C under setting [5] was 100 % of control, the T/C under setting [6] is 108 % of control and the T/C under setting [7] was 108 % of control.
As to `CN(C)C1C[C@@H](O[Si](C)(C)C(C)(C)C)C=C1S(=O)(=O)c1ccccc1` (some centres undefined), the T/C (dose: 60.0 mg/kg/injection, schedule: Q01DX005 (ip), vehicle: Klucel (hydroxypropylcellulose) (HPC)) is 87 % of control.
On to `CC(CC(=O)c1ccccc1)C(Sc1ccccc1)(Sc1ccccc1)Sc1ccccc1` (centres undefined), for which the T/C under setting [8] was 93 % of control, the T/C under setting [9] was 90 % of control and the T/C under setting [10] was 89 % of control.
For `CC(=O)NC(Cc1cccs1)C(=O)O` (centres undefined), the T/C was 93 % of control (dose: 50.0 mg/kg/injection, schedule: Q01DX009 (ip), vehicle: saline); 101 % of control (dose: 100.0 mg/kg/injection, schedule: Q01DX009 (ip), vehicle: saline); 101 % of control (dose: 200.0 mg/kg/injection, schedule: Q01DX009 (ip), vehicle: saline).
On to `CC[C@H]1CN2CCc3cc(OC)c(OC)cc3[C@@H]2C[C@@H]1C[C@H]1NCCc2cc(OC)c(OC)cc21`, for which the T/C (dose: 1.0 mg/kg/injection, schedule: Q01DX009 (ip), vehicle: water) is 112 % of control and 118 % of control; the T/C (dose: 4.0 mg/kg/injection, schedule: Q01DX009 (ip), vehicle: water) is 154 % of control; the T/C (dose: 4.32 mg/kg/injection, schedule: Q04DX003 (ip), vehicle: saline) is 118 % of control and 122 % of control; the T/C (dose: 5.0 mg/kg/injection, schedule: Q04DX003 (ip), vehicle: saline) was 121 % of control; the T/C (dose: 5.18 mg/kg/injection, schedule: Q04DX002 (ip), vehicle: saline) was 106 % of control; the T/C (dose: 5.18 mg/kg/injection, schedule: Q04DX003 (ip), vehicle: saline) is 122 % of control. In addition, the T/C (dose: 7.2 mg/kg/injection, schedule: Q04DX003 (ip), vehicle: saline) is 123 % of control; the T/C (dose: 8.0 mg/kg/injection, schedule: Q01DX009 (ip), vehicle: water) was 166 % of control and 183 % of control; the T/C (dose: 8.64 mg/kg/injection, schedule: Q04DX003 (ip), vehicle: saline) is 122 % of control; the T/C (dose: 12.0 mg/kg/injection, schedule: Q04DX003 (ip), vehicle: saline) was 153 % of control; the T/C (dose: 14.4 mg/kg/injection, schedule: Q04DX002 (ip), vehicle: saline) is 151 % of control and 156 % of control; the T/C (dose: 14.4 mg/kg/injection, schedule: Q04DX003 (ip), vehicle: saline) is 153 % of control. The T/C is 115 % of control (dose: 16.0 mg/kg/injection, schedule: Q01DX009 (ip), vehicle: water); 169 % of control and 174 % of control and 175 % of control (dose: 20.0 mg/kg/injection, schedule: Q04DX003 (ip), vehicle: saline); 175 % of control and 177 % of control (dose: 24.0 mg/kg/injection, schedule: Q04DX002 (ip), vehicle: saline); 183 % of control and 213 % of control (dose: 24.0 mg/kg/injection, schedule: Q04DX003 (ip), vehicle: saline); 224 % of control and 94 % of control (dose: 33.3 mg/kg/injection, schedule: Q04DX003 (ip), vehicle: saline).
As for `CC(C)(CO)CS`, the T/C is 99 % of control under setting [5], 100 % of control under setting [6] and 97 % of control under setting [7].
As for `Cc1nc(C)n2cnnc2c1C`, the T/C is, setting by setting: (dose: 100.0 mg/kg/injection, schedule: Q04DX003 (ip), vehicle: saline) 96 % of control; (dose: 200.0 mg/kg/injection, schedule: Q04DX003 (ip), vehicle: saline) 95 % of control.
On to `CCOC(=O)c1cc(Cl)cc2c(=O)c3c([nH]c12)C(=O)c1c([nH]c2c(C(=O)OCC)cc(Cl)cc2c1=O)C3=O`, for which the T/C under setting [8] is 99 % of control, the T/C under setting [9] was 105 % of control and the T/C under setting [10] is 98 % of control.

The record behind these values is PubChem BioAssay AID330 (DTP/NCI, 2004).
